For data set [1] the following is noted: human, in vivo.
The next data set has as its system OAT2. As to conditions: in vitro; cited from earlier work.
The nature of data set [2]: clinical. As to conditions: human, in vivo.
For the next data set, the system named is OATP1B3. The note with it: in vitro; cited from earlier work.
Data set [3] can be described thus: clinical. As to conditions: human, in vivo. The source holds these as a separate data set.

`CC(=O)O[C@@]12CO[C@@H]1C[C@H](O)[C@@]1(C)C(=O)[C@H](O)C3=C(C)[C@@H](OC(=O)[C@H](O)[C@@H](NC(=O)OC(C)(C)C)c4ccccc4)C[C@@](O)([C@@H](OC(=O)c4ccccc4)[C@H]21)C3(C)C` [Docetaxel]: in data set [1], the CL is 18.1 ± 4.35(7) l/h and the T1/2 is 60.2 ± 31.0(7) h. Also, the “substrate for liver OAT2” value in the data set with OAT2 is given as “substrate for liver OAT2”. Besides, the clearance in the data set “clinical [2]” (CL) was 272 mL/min. In “clinical [2]” (T1/2), this compound had a half-life of 2710 ± 1200 min. Further, the “substrate for liver OATP1B3” value with OATP1B3 is recorded as “substrates for liver OATP1B3”.
As for `Cc1ccc(NC(=O)c2ccc(CN3CCN(C)CC3)cc2)cc1Nc1nccc(-c2cccnc2)n1` [Imatinib], in “clinical [3]”, the time to peak (Tmax) came to 5 h.

These data come from article PMC3111459 (Breast cancer research and treatment, 2011).
